What was measured:
HL-60 [1] = test: ATP ViaLight plus cell viability assay; assay type: cell-based, Human; details: for (FD) fold difference compared to Cordycepin = Cordycepin IC50/ProTide IC50: HL-60
Experimental: (§1) Certain compounds of the invention were subjected to further studies to test the cytotoxic activity of certain compounds of the invention and also to measure their activity against 4 haematological cancer cell lines • TdT positive CEM (Human ALL) • TdT negative K562 (Human CML) • TdT negative H1-60 (Human ANLL) • RL (CRL-2261) non-HD lymphoma • The concentrations of the active metabolite dATP (Cordycepin triphosphate) in these cell lines was also measured. • The cytotoxic activity and the intracellular 3′-dATP concentrations were also studied in the presence of hENT1, Adenosine Kinase (AK) and Adenosine Deaminase pharmacological inhibitors in CEM and RL cancer cell lines. Said inhibitors that mimic known cancer resistance mechanisms. Methods Cell Culture
(§2) HL-60, K562, CCRF-CEM and RL cell lines were cultured in RPMI-1640 medium (Sigma Aldrich, UK), which were supplemented with 10% Fetal Bovine Serum (FBS) (PAA Laboratories), 1% amphotericin B (5.5 ml) and 1% penicillin/streptomycin (5.5 ml) (PAA Laboratories) and grown in flasks at 37° C. incubator with 5% CO2.
(§3) The amount of ATP was used as a measurement of cell number and cell viability. ATP ViaLight™ plus assay kit (Lonza, USA: Product No. LT07-121) to detect ATP in cells treated in luminescence compatible 96 well plates (initial concentration of cells was 1×10^4 cells/well) with cordycepin and ProTides at concentrations of: 0, 0.1, 0.5, 1, 5 and 10 μM, followed by incubation for 72 hours at 37° C. incubator with 5% CO2. For inhibitor studies, 10 μM of NBTI or 1 μM EHNA or A-134974 was added and left for 5 minutes before adding the drugs (see section 5 for inhibitor details).
(§4) After incubation, 50 μl of cell lysis reagent was added to the 96 well plates to release the intracellular ATP, followed by 100 μl of ATP monitoring reagent (AMR). The luminescent values of each well were determined using FLUOstar OPTIMA microplate reader (BMG Labtech) which convert ATP into light by using luciferase enzyme. Therefore, the amount of luminescence produced was directly proportional to the amount of ATP.
(§5) The dose-response curves of cytotoxicity of the drugs was determined using non-linear regression analysis of percentage cell viability versus concentration and EC50 values were obtained. The intracellular assay was conducted in five replicates for each condition. Intracellular assay was determined using paired t test (two-tailed) analysis of 3′ ATP/ATP concentration and p-values were obtained. For all the analysis, Prism Software program (GraphPad Software) was used and Microsoft Powerpoint® 2013 was used to plot the results.

K562 [2] = test: ATP ViaLight plus cell viability assay; assay type: cell-based, Human; details: for (FD) fold difference compared to Cordycepin = Cordycepin IC50/ProTide IC50: K562
Experimental: as §1, §2, §3, §4, §5

CCRF-CEM = test: CellTiterGlo cell viability assay, initial screening; assay type: cell-based; details: CCRF-CEM; 72 hr; Table II
Experimental: (§6) In vitro viability assays were performed to assess the effects of compounds on cell viability in 7 selected cell lines over 72 hr using the CellTiterGlo (CTG, Promega-G7573) assay. The tests were performed in duplicates with treatment of compounds at 9 points, 3.16 folds titration in 96 well plates over ˜72 hr. The compound starting concentrations were […]. Cell viability assay using CellTiterGlo in 96-well plate were performed. The compound treatment was 72 hrs, under standard growth conditions, and in duplicate. Compounds were dissolved to 40 mM with thawed […]. Compounds were serially diluted at 3.16 fold in thawed DMSO, and warmed to 37° C. before being dissolved in media (2 μl+200 μl). After compounds were dissolved in media (media was also warmed to 37° C.). Media containing compounds were warmed to 37° C. in incubator and then compounds in media were added to cell plates (50 μl+50 μl), in duplicates. The compounds final concentrations were from […] to 19.9 nM. All compound solubilities were checked and recorded again, then the plates were transferred to CO2 tissue culture incubator immediately and incubated for 3 days. DMSO final concentration is 0.5%.

MCF-7 = test: as above; assay type: cell-based; details: MCF-7; 72 hr; Table II
Experimental: as §6

KG-1 = test: as above; assay type: cell-based; details: KG-1; 72 hr; Table II
Experimental: as §6

HL-60 [3] = test: as above; assay type: cell-based; details: for M.I. %: maximum percentage inhibition of cell viability: HL-60, 72 hr, Table II; for IC50: Homo sapiens, HL-60, 72 h, read-out: IC50 (relative IC50)
Experimental: as §6

K562 [4] = test: as above; assay type: cell-based; details: 72 hr, Table II
Experimental: as §6

HepG2 = test: as above; assay type: cell-based; details: for M.I. %: maximum percentage inhibition of cell viability: HepG2, 72 hr, Table II; for IC50: Homo sapiens, HepG2, 72 h, read-out: IC50 (relative IC50)
Experimental: as §6

MOLT-4 [5] = test: as above; assay type: cell-based; details: for M.I. %: maximum percentage inhibition of cell viability: MOLT-4, 72 hr, Table II
Experimental: as §6

SW620 = test: Solid tumour and haematological malignancy assay (CellTiterGlo); assay type: cell-based; details: for IC50: Homo sapiens, SW-620, 72 h, read-out: IC50 (absolute IC50); for MI %: SW620, 72 hr
Experimental: (§7) In vitro viability assay were performed to assess the effects of compounds on cell viability in selected cell lines over 72 hr using the CellTiterGlo (CTG, Promega-G7573) assay. The tests were performed in duplicates with treatment of compounds at 9 points, 3.16 folds titration in 96 well plates over ˜72 hr. The compound starting concentrations were […]. Cell viability assay using CellTiterGlo in 96-well plate were performed. Compound treatment 72 hrs, standard growth conditions, duplicates. Compounds were dissolved to 40 mM with thawed […]. Compounds were serially diluted at 3.16 fold in thawed DMSO, and warmed to 37° C. before being dissolved in media (2 μl+200 μl). After compounds were dissolved in media, media containing compounds were warmed to 37° C. in incubator and then compounds in media were added to cell plates (50 μl+50 μl) in duplicates. The compounds' final concentrations were from 198M to 19.9 nM. All compound solubilities were checked and recorded again, then the plates were transferred to CO2 tissue culture incubator immediately and incubated for 3 days. DMSO final concentration is 0.5%.

MOLT-4 [6] = test: as above; assay type: cell-based; details: Homo sapiens, MOLT-4, 72 h; for Emax: read-out: MI %; for IC50: read-out: IC50 (absolute IC50)
Experimental: as §7

RL (CRL-2261) = test: ATP ViaLight plus cell viability assay; assay type: cell-based
Experimental: as §1, §2, §3, §4
Cell lines were treated in the same way as described above but before treatment with drugs, a number of inhibitors were added: • 1) Nitrobenzylthioinosine (NBTI) (Sigma-Aldrich, St. Louis, MO, product # N2255) blocks nucleoside transporters • 2) EHNA hydrochloride (Sigma-Aldrich, St. Louis, MO, product # E114) blocks adenosine deaminase • 3) Adenosine kinase inhibitor A-134974 dihydrochloride hydrate (Sigma-Aldrich, St. Louis, MO, product # A2846): blocks adenosine kinase
as §5

| SMILES | (FD) fold difference compared to Cordycepin = Cordycepin IC50/ProTide IC50 (HL-60 [1]) | (FD) fold difference compared to Cordycepin = Cordycepin IC50/ProTide IC50 (K562 [2]) | M.I. %: maximum percentage inhibition of cell viability (CCRF-CEM) | M.I. %: maximum percentage inhibition of cell viability (MCF-7) | M.I. %: maximum percentage inhibition of cell viability (KG-1) | M.I. %: maximum percentage inhibition of cell viability (HL-60 [3]) | IC50 (HL-60 [3]) | M.I. %: maximum percentage inhibition of cell viability (K562 [4]) | M.I. %: maximum percentage inhibition of cell viability (HepG2) | IC50 (HepG2) | M.I. %: maximum percentage inhibition of cell viability (MOLT-4 [5]) | IC50 (SW620) | MI % (SW620) | Emax (MOLT-4 [6]) | (FD) fold difference compared to Cordycepin = Cordycepin IC50/ProTide IC50 (RL (CRL-2261)) | (FD) fold difference compared to control (RL (CRL-2261); AK) | (FD) fold difference compared to control (RL (CRL-2261); EHNA) | (FD) fold difference compared to control (RL (CRL-2261); NBTI) | IC50 (MOLT-4 [6]) | also measured |
| --- | --- | --- | --- | --- | --- | --- | --- | --- | --- | --- | --- | --- | --- | --- | --- | --- | --- | --- | --- | --- |
| COC(=O)C(C)(C)NP(=O)(OC[C@@H]1C[C@@H](O)[C@H](n2cnc3c(N)ncnc32)O1)Oc1cccc2ccccc12 (stereo partly drawn) [E, Methyl 2-(((((2S,4R,5R)-5-(6-amino-9H-purin-9-yl)-4-hydroxytetrahydrofuran-2-yl)-methoxy)(naphthalen-1-yloxy)phosphoryl)amino)-2-methylpropanoate] | 1 | 1 | 90% | 78% | 69% | 74% | 15 to 100 µM | 81% | 59% | 15 to 100 µM | 97% | 15 to 100 µM | 74% | 98% | 2 | 1 | 1 | 1 |  |  |
| CCOC(=O)CCc1ccccc1OP(=O)(N[C@@H](C)C(=O)OCc1ccccc1)OC[C@@H]1C[C@@H](O)[C@H](n2cnc3c(N)ncnc32)O1 (stereo partly drawn) [F, (2S)-benzyl 2-(((((2S,4R,5R)-5-(6-amino-9H-purin-9-yl)-4-hydroxytetrahydrofuran-2-yl)methoxy)(2-(3-ethoxy-3-oxopropyl)phenoxy)phosphoryl)amino)propanoate] | 1 | 2 | 99% | 99% | 98% | 100% | 15 to 100 µM | 91% | 84% | 15 to 100 µM | 100% | 15 to 100 µM |  | 98% | 7 |  |  |  | 0.1 to 5 µM | IC50 (HL-60 [1]; Homo sapiens, HL-60, 72 h): 8.3 µM; IC50 (K562 [2]; Homo sapiens, K562, 72 h): 6.3 µM |
| C[C@H](NP(=O)(OC[C@@H]1C[C@@H](O)[C@H](n2cnc3c(N)ncnc32)O1)Oc1cccc2ccccc12)C(=O)OCc1ccccc1 (stereo partly drawn) [B, (2S)-benzyl 2-(((((2S,4R,5R)-5-(6-amino-9H-purin-9-yl)-4-hydroxytetrahydrofuran-2-yl)methoxy)(naphthalen-1-yloxy)phosphoryl)amino)propanoate] | 4 | 52 | 100% | 99% | 100% | 100% | 5 to 15 µM | 97% | 95% |  | 100% | 5 to 15 µM | 93% | 98% | 61 | 1 | 2 | 1 | 0.1 to 5 µM | IC50 (MOLT-4 [5]; Homo sapiens, MOLT-4, 72 h, read-out: IC50 (relative IC50)): 0.1 to 5 µM |

From patent US12054510B2, “2′ and/or 5′ amino-acid ester phosphoramidate 3′-deoxy adenosine derivatives as anti-cancer compounds” (Nucana plc, priority 2014, dated 2024)
